Experimental data taken from PubChem BioAssay (NCI).
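Grown in 96-well plates, cells were treated for 48 hours with each compound at five concentrations. Insufficient inhibition: endpoint recorded as highest concentration tested. Definition used: TGI = concentration required for complete inhibition of growth.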

Assays:
Assay in all cases: growth of human tumour cells (NCI), 48 h
[1] = system: M14 melanoma
[2] = system: SK-MEL-2 melanoma
[3] = system: SF-268 CNS
[4] = system: SK-MEL-5 melanoma
[5] = system: IGROV1 ovarian
[6] = system: BT-549 breast
[7] = system: HL-60(TB) leukemia
[8] = system: NCI/ADR-RES ovarian
[9] = system: SK-MEL-28 melanoma
[10] = system: CAKI-1 renal
[11] = system: SNB-75 CNS
[12] = system: SR leukemia
[13] = system: ACHN renal
[14] = system: HOP-62 NSCLC
[15] = system: TK-10 renal
[16] = system: NCI-H522 lung
[17] = system: 786-0 renal
[18] = system: MCF7 breast
[19] = system: OVCAR-3 ovarian
[20] = system: MDA-MB-231 breast
[21] = system: A549 NSCLC
[22] = system: NCI-H226 lung
[23] = system: SF-539 CNS
[24] = system: SF-295 CNS
[25] = system: A498 renal
[26] = system: SW-620 colon
[27] = system: OVCAR-4 ovarian
[28] = system: K-562 leukemia
[29] = system: HCT-116 colon
[30] = system: U251 CNS
[31] = system: HCT-15 colon
[32] = system: PC-3 prostate
[33] = system: MALME-3M melanoma
[34] = system: LOX IMVI melanoma
[35] = system: HT29 colon
[36] = system: NCI-H23 lung
[37] = system: COLO 205 colon
[38] = system: OVCAR-5 ovarian
[39] = system: MDA-MB-435
[40] = system: HCC-2998 colon
[41] = system: MOLT-4 leukemia
[42] = system: SK-OV-3 ovarian
[43] = system: OVCAR-8 ovarian
[44] = system: CCRF-CEM leukemia
[45] = system: MDA-N
[46] = system: RPMI-8226 leukemia
[47] = system: SNB-19 CNS
[48] = system: UACC-257 melanoma
[49] = system: UO-31 renal
[50] = system: UACC-62 melanoma
[51] = system: T-47D breast
[52] = system: SN12C renal
[53] = system: NCI-H460 lung
[54] = system: KM12 colon
[55] = system: DU-145 prostate
[56] = system: RXF 393 renal
[57] = system: HS 578T breast

For `CC1(C)C2CCC(=O)C1C(OCc1ccccc1)C2` (configuration not stated), the TGI [1] was greater than 100 µM, the TGI [2] was greater than 100 µM and the TGI [3] was greater than 100 µM. The TGI [4] was 50.6 µM, the TGI [5] was greater than 100 µM and the TGI [6] was greater than 100 µM. It also gave a TGI [7] greater than 100 µM, a TGI [8] greater than 100 µM and a TGI [9] greater than 100 µM. The TGI [10] was greater than 100 µM, the TGI [11] was greater than 100 µM and the TGI [12] was greater than 100 µM. For the same compound, the TGI [13] was greater than 100 µM, the TGI [14] was greater than 100 µM and the TGI [15] was greater than 100 µM. It also gave a TGI [16] greater than 100 µM, a TGI [17] greater than 100 µM and a TGI [18] greater than 100 µM. The TGI [19] was greater than 100 µM, the TGI [20] was greater than 100 µM and the TGI [21] was greater than 100 µM. It also gave a TGI [22] greater than 100 µM, a TGI [23] greater than 100 µM and a TGI [24] greater than 100 µM. It also gave a TGI [25] greater than 100 µM, a TGI [26] greater than 100 µM and a TGI [27] greater than 100 µM. The TGI [28] was greater than 100 µM, the TGI [29] was greater than 100 µM and the TGI [30] was greater than 100 µM. For the same compound, the TGI [31] was greater than 100 µM, the TGI [32] was greater than 100 µM and the TGI [33] was greater than 100 µM. The TGI [34] was greater than 100 µM, the TGI [35] was greater than 100 µM and the TGI [36] was greater than 100 µM. The TGI [37] was greater than 100 µM, the TGI [38] was greater than 100 µM and the TGI [39] was greater than 100 µM. For the same compound, the TGI [40] was greater than 100 µM, the TGI [41] was greater than 100 µM and the TGI [42] was greater than 100 µM. It also gave a TGI [43] greater than 100 µM, a TGI [44] greater than 100 µM and a TGI [45] greater than 100 µM. For the same compound, the TGI [46] was greater than 100 µM, the TGI [47] was greater than 100 µM and the TGI [48] was greater than 100 µM. For the same compound, the TGI [49] was greater than 100 µM, the TGI [50] was greater than 100 µM and the TGI [51] was greater than 100 µM. It also gave a TGI [52] greater than 100 µM, a TGI [53] greater than 100 µM and a TGI [54] greater than 100 µM. For the same compound, the TGI [55] was greater than 100 µM, the TGI [56] was greater than 100 µM and the TGI [57] was greater than 100 µM.
